In test [1] the test system is ATM. Kind of test: ATM activation: phospho-ATM (S1981) ELISA on the nuclear fraction of MCF7 cells. Type of test: cell-based, Human. Conditions: 1 μM, time course of 6 hours. The method, then: Several assays were utilized to determine the ability of the compounds of the invention to activate ATM over a period of time. […] The fold change in phospho-ATM was measured over a period of time. Accordingly, the increase in phospho-ATM indicates activation of ATM by the compounds of the invention.
In certain examples, the activity of the compounds of the invention was compared to additional modulators of ATM, such as […] (a specific ATM inhibitor); dimethylsulfoxide (DMSO) (a solvent); 3,3′-diindolylmethane (DIM) (an ATM activator); and irradiation (irradiation may result in the generation of phospho-ATM due to DNA damage). DIM was not used as a comparative compound in Example 5.
Materials: MCF7 Cells; Complete RPMI media: RPMI, 10% Fetal Bovine Serum (FBS), 5% L-glutamine, 5% Pen/Strep; R&D Systems Human P-ATM (S1981) DuoSet IC ELISA Assay Kit; Plate sealers; Normal mouse serum (heat inactivated 56 C for 30 min); 96-well ELISA microtiter plate; 450 nm Plate Reader; 60 mm dishes; Disposable pipettes; Pipet-aid; Pipette tips; Micro-pipetter; Cell scraper; Distilled water; Pierce NE-PER Nuclear and Cytoplasmic Extraction Reagent; Pierce Protease and Phosphotase Inhibitor Mini Tablets; KU-55933; DIM (not used in Example 5); Dimethyl sulfoxide (DMSO); Phosphate buffered saline (PBS); and Sterile micro-tubes and conical tubes; Hemocytometer; Microscope; Micro-centrifuge.
MCF7 Cells were grown in Complete RPMI media and 10^6 cells were seeded into 60 mm dishes. Dishes were then divided into duplicate treatments the following day. Control samples were treated with 3 ml RPMI media for 1 hr. Vehicle samples were treated with 3 ml RPMI media plus 0.1% DMSO for 1 hr. Negative control samples were treated with 10 μM KU-55933 in 3 ml RPMI media plus 0.1% DMSO for 1 Hr. Positive control samples were treated with 0.5 μM DIM in 3 ml RPMI media plus 0.1% DMSO for 30 min. Test Samples were treated with 1 μM of the test compounds (e.g. N-(6-(hydroxyamino)-6-oxohexyl)-1H-indole-2-carboxamide in Example 5) in 3 ml RPMI media plus 0.1% DMSO for 30 min; 1 hr; 2 hrs; 4 hrs; and 6 hrs. At their designated time, samples were harvested on ice using a cell scraper and two washes of 1 ml PBS and kept as a cell pellet on dry ice until all were collected. After all samples were collected they were thawed on ice and separated into cytosolic and nuclear fractions using the Pierce NE-PER Nuclear and Cytoplasmic Extraction Reagent kit with added Pierce protease and phosphotase inhibitor tablet.
After recovery of the separate fractions, the process further included washing cells by suspending the cell pellet with PBS. 1-10×10^6 cells were transferred to a 1.5 mL microcentrifuge tube and a pellet was formed by centrifugation at 500×g for 2-3 minutes. […]
(In general: ELISA stands for enzyme-linked immunosorbent assay.)

Test [2] concerns pan-HDACs. Kind of test: Pan-HDAC assay (Fluor-de-Lys fluorometric kit, HeLa Nuclear Extract). Type of test: biochemical. Conditions: values are average EC50, read-out: EC50 against pan-HDACs. The method, then:
Certain compounds of the invention were tested in a pan-HDAC assay to determine the ability of such compounds to inhibit HDAC protein. Specifically, the compounds tested included: N-(6-(hydroxyamino)-6-oxohexyl)-3-methyl-1H-indole-2-carboxamide (SP-1-161) (FIG. 8A); N^1-hydroxy-N^6-(2-(2-methyl-1H-indol-3-yl)ethyl)octanediamide (SP-1-163) (FIG. 8A); (S)—N-(6-(hydroxyamino)-6-oxohexyl)-1-tosylindoline-2-carboxamide (SP-1-169) (FIG. 8B); and (S)-1-((5-(dimethylamino)naphthalene-1-yl)sulfonyl)-N-(6-(hydroxyamino)-6-oxoheyl)indoline-carboxamide (SP-1-171) (FIG. 8B).
The Pan HDAC assay was performed as follows:
Materials: Enzo Fluor-de-Lys HDAC fluorometric activity assay kit; 360 nm excitation 460 nm emission Plate Reader; Disposable pipettes; Pipet-aid; Pipette tips; Micro-pipetter; DMSO; Sterile micro-tubes and conical tubes; and Micro-centrifuge.
Test compounds and control preparation: All test compounds' stock solutions were made in 100% DMSO. Test compound dilutions were made in HDAC Assay buffer with a final concentration of DMSO less than or equal to 1%. Vehicle control was HDAC Assay buffer with 1% DMSO.
The reagents for the assay were prepared as follows:
1. All kit components were defrosted and these, and all dilutions described below, were kept on ice until use. All undiluted kit components are stable for several hours on ice.
2. A sufficient amount of HeLa Nuclear Extract (BML-KI140) or other HDAC source diluted in Assay Buffer (BML-KI143) was prepared to provide for the assays that were performed (# of wells×15 μl). A 30-fold dilution of the HeLa Extract means that 15 μl contains 0.5 μl of the undiluted Extract, an appropriate amount to use per well.
3. Dilution(s) of Trichostatin A and/or Test Inhibitors were prepared in Assay Buffer (BML-KI143). Since 10 μl were used per well, and since the final volume of the HDAC reaction was 50 μl, these inhibitor dilutions were 5× their final concentration.
4. Dilution(s) of the Fluor de Lys® Substrate (BML-KI104; 50 mM) were prepared in Assay Buffer (BML-KI143) that were 2× the desired final concentration(s). For inhibitor screening, substrate concentrations at or below the Km are recommended. Twenty-five μL were used per well. Initial dilutions of 25-fold or greater in Assay Buffer (2.0 mM or less) yielded stable solutions (see NOTE on freezing and thawing below). Rapid mixing and dilution into room temperature buffer helped to prevent precipitation at high substrate concentration. NOTE: Freezing/thawing of Fluor de Lys® Substrate solutions in Assay Buffer may cause precipitation of the Substrate. Dilute only amount necessary for one day's experiment.
5. Shortly before use (<30 min.), sufficient Fluor de Lys® Developer was prepared for the assays to be performed (50 μl per well). […]

From US10745352B2, “Dual function molecules for histone deacetylase inhibition and ataxia telangiectasia mutated activation and methods of use thereof” (Shuttle Pharmaceuticals, Inc., priority 2015, dated 2020) come the findings set out here.

As for `Cc1[nH]c2ccccc2c1C` [2,3-dimethyl indole, reference compound], the “ATM activation (level of ATM phosphorylation, phospho-ATM)” value in test [1] is reported as “significant increase in ATM phosphorylation”; in test [1] (listed as 2,3-dimethylindole) it was “significant increase in ATM activation”.
One may read the EC50 as the concentration that produces a half-maximal response. Regarding `Cc1[nH]c2ccccc2c1CCNC(=O)CCCCCCC(=O)NO` [SP-1-163, N^1-hydroxy-N^6-(2-(2-methyl-1H-indol-3-yl)ethyl)octanediamide], in test [1], the “ATM activation (level of ATM phosphorylation, phospho-ATM)” value is “exemplary ATM activation activity”. In addition, the EC50 in test [2] stood at 0.112 µM.
Take `Cc1ccc(S(=O)(=O)N2c3ccccc3C[C@H]2C(=O)NCCCCCC(=O)NO)cc1` [SP-1-169, (S)—N-(6-(hydroxyamino)-6-oxohexyl)-1-tosylindoline-2-carboxamide]: the half-maximal effective concentration (EC50) in test [2] is 0.265 µM.
Still for that read-out and setting: under `CN(C)c1cccc2c(S(=O)(=O)N3c4ccccc4C[C@H]3C(=O)NCCCCCC(=O)NO)cccc12` [SP-1-171, (S)-1-((5-(dimethylamino)naphthalene-1-yl)sulfonyl)-N-(6-(hydroxyamino)-6-oxoheyl)indoline-carboxamide] stands 0.0253 µM.
